Assay results from US9493444B2 (Merck Patent GmbH, priority 2012, dated 2016).
pIC50: −log10 of the molar value.

These compounds were tested on Wnt pathway (TCF-dependent transcription in HEK293 luciferase reporter cell line with ER-DSH construct) (assay: Cellular assay for Wnt pathway activity (luciferase reporter)). Conditions: Homo sapiens; Wnt pathway inhibition, HEK293 luciferase reporter cells (ER-DSH, TCF promoter), 24 hours incubation, estrogen-induced.
Format: cell-based
Experimental: 1. Cellular Assay for Wnt Pathway Activity
Compounds were tested for their Wnt pathway inhibitory activities using a luciferase reporter cell based assay. A HEK293 luciferase reporter cell line was used which contained an Estrogen Receptor-Dishevelled (ER-DSH) construct and a T-Cell Factor (TCF) dependent gene promoter luciferase construct.
Compounds, in concentrations from 30 μM down to 1 nM, were incubated for 24 hours on the cells, which were induced for TCF-dependent transcription by the addition of estrogen (10). Luciferase activities were determined using the ONE GLO Luciferase Assay System (Promega) and the ENVISION microplate reader (Perkin Elmer). For analysis, the obtained data were normalized against the untreated vehicle control and fitted for determination of the IC50 values using the Assay Explorer software (Accelrys).

Compound | pIC50
CSc1ccc(Oc2cncc(N(C)CCN(C)C(C)=O)n2)cc1 [Compound 65, N-Methyl-N-(2-{methyl-[6-(4-methyl-sulfanyl-phenoxy)-pyrazin-2-yl]-amino}-ethyl)-acetamide] | > 6.70
CC(=O)N(C)CCNc1cncc(Oc2ccc(F)cc2)n1 [Compound 66, N-{2-[6-(4-Fluoro-phenoxy)-pyrazin-2-ylamino]-ethyl}-N-methyl-acetamide] | 5.00 to 6.00
COc1ccc(Oc2cncc(NCCN(C)C(C)=O)n2)cc1 [Compound 67, N-{2-[6-(4-Methoxy-phenoxy)-pyrazin-2-ylamino]-ethyl}-N-methyl-acetamide] | 5.00 to 6.00
CCNC(=O)N(C)CCN(C)c1cncc(Oc2ccc(OC)cc2)n1 [Compound 69, 3-Ethyl-1-(2-{[6-(4-methoxy-phenoxy)-pyrazin-2-yl]-methyl-amino}-ethyl)-1-methyl-urea] | 5.00 to 6.00
CCN(CCNc1cncc(Oc2cccc(F)c2)n1)C(C)=O [Compound 70, N-Ethyl-N-{2-[6-(3-fluoro-phenoxy)-pyrazin-2-ylamino]-ethyl}-acetamide] | 5.00 to 6.00
CCN(CCNc1cncc(Oc2ccc(OC)cc2)n1)C(C)=O [Compound 71, N-Ethyl-N-{2-[6-(4-methoxy-phenoxy)-pyrazin-2-ylamino]-ethyl}-acetamide] | 6.00 to 6.70
CCN(CCNc1cncc(Oc2ccc(F)cc2)n1)C(C)=O [Compound 72, N-Ethyl-N-{2-[6-(4-fluoro-phenoxy)-pyrazin-2-ylamino]-ethyl}-acetamide] | 5.00 to 6.00
CCN(CC1CCCN(c2cncc(Oc3ccc(OC)cc3)n2)C1)C(C)=O (stereo not shown) [Compound 73, N-Ethyl-N-{1-[6-(4-methoxy-phenoxy)-pyrazin-2-yl]-piperidin-3-ylmethyl}-acetamide] | 5.00 to 6.00
CN(CCN(C)c1cncc(Oc2ccc3ncccc3c2)n1)C(=O)C(F)(F)F [Compound 74, 2,2,2-Trifluoro-N-methyl-N-(2-{methyl-[6-(quinolin-6-yloxy)-pyrazin-2-yl]-amino}-ethyl)-acetamide] | 5.00 to 6.00
CSc1cccc(Oc2cncc(N(C)CCN(C)C(=O)C(F)F)n2)c1 [Compound 75, 2,2-Difluoro-N-methyl-N-(2-{methyl-[6-(3-methyl-sulfanyl-phenoxy)-pyrazin-2-yl]-amino}-ethyl)-acetamide] | 5.00 to 6.00
CSc1cccc(Oc2cncc(N(C)CCN(C)C(=O)CF)n2)c1 [Compound 76, 2-Fluoro-N-methyl-N-(2-{methyl-[6-(3-methyl-sulfanyl-phenoxy)-pyrazin-2-yl]-amino}-ethyl)-acetamide] | 6.00 to 6.70
CCN(CCN(C)c1cncc(Oc2ccc(OC)cc2)n1)C(C)=O [Compound 77, N-Ethyl-N-(2-{[6-(4-methoxy-phenoxy)-pyrazin-2-yl]-methyl-amino}-ethyl)-acetamide] | > 6.70
COC(=O)N(C)CCN(C)c1cncc(Oc2ccc(OC)cc2)n1 [Compound 78, (2-{[6-(4-Methoxy-phenoxy)-pyrazin-2-yl]-methyl-amino}-ethyl)-methyl-carbamic acid methyl ester] | 5.00 to 6.00
COc1ccc(Oc2cncc(N(C)CCN(C)C(=O)C(F)(F)F)n2)cc1 [Compound 79, 2,2,2-Trifluoro-N-(2-{[6-(4-methoxy-phenoxy)-pyrazin-2-yl]-methyl-amino}-ethyl)-N-methyl-acetamide] | 5.00 to 6.00
COc1ccc(Oc2cncc(N(C)CCCN(C)C(C)=O)n2)cc1 [Compound 80, N-(3-{[6-(4-Methoxy-phenoxy)-pyrazin-2-yl]-methyl-amino}-propyl)-N-methyl-acetamide] | 5.00 to 6.00
COc1ccc(Oc2cncc(N(C)CCCN(C)C(=O)C(F)(F)F)n2)cc1 [Compound 81, 2,2,2-Trifluoro-N-(3-{[6-(4-methoxy-phenoxy)-pyrazin-2-yl]-methyl-amino}-propyl)-N-methyl-acetamide] | 5.00 to 6.00
CCN(CCN(C)c1cncc(Oc2cccc(F)c2)n1)C(C)=O [Compound 82, N-Ethyl-N-(2-{[6-(3-fluoro-phenoxy)-pyrazin-2-yl]-methyl-amino}-ethyl)-acetamide] | 6.00 to 6.70
CC(=O)N(C)CCCN(C)c1cncc(Oc2ccc(F)cc2)n1 [Compound 83, N-(3-{[6-(4-Fluoro-phenoxy)-pyrazin-2-yl]-methyl-amino}-propyl)-N-methyl-acetamide] | 5.00 to 6.00
CN(CCCN(C)c1cncc(Oc2ccc(F)cc2)n1)C(=O)C(F)(F)F [Compound 84, 2,2,2-Trifluoro-N-(3-{[6-(4-fluoro-phenoxy)-pyrazin-2-yl]-methyl-amino}-propyl)-N-methyl-acetamide] | 5.00 to 6.00
CC(=O)N(C)CCN(C)c1cncc(Oc2ccc(C(C)(C)C)cc2)n1 [Compound 85, N-(2-{[6-(4-tert-Butyl-phenoxy)-pyrazin-2-yl]-methyl-amino}-ethyl)-N-methyl-acetamide] | > 6.70

Compound | pIC50
CC(=O)N(C)CCN(C)c1cncc(Oc2ccc(N3CCCCC3=O)cc2)n1 [Compound 86, N-Methyl-N-[2-(methyl-{6-[4-(2-oxo-piperidin-1-yl)-phenoxy]-pyrazin-2-yl}-amino)-ethyl]-acetamide] | 6.00 to 6.70
CC(=O)N(C)CCN(C)c1cncc(Oc2ccc(N3CCN(C(C)=O)CC3)cc2)n1 [Compound 87, N-[2-({6-[4-(4-Acetyl-piperazin-1-yl)-phenoxy]-pyrazin-2-yl}-methyl-amino)-ethyl]-N-methyl-acetamide] | 6.00 to 6.70
CC(=O)N(C)CCN(C)c1cncc(Oc2ccc(Cl)c(C(F)(F)F)c2)n1 [Compound 88, N-(2-{[6-(4-Chloro-3-trifluoro-methyl-phenoxy)-pyrazin-2-yl]-methyl-amino}-ethyl)-N-methyl-acetamide] | 5.00 to 6.00
CC(=O)N(C)CCN(C)c1cncc(Oc2ccc(Cl)c(Cl)c2)n1 [Compound 89, N-(2-{[6-(3,4-Dichloro-phenoxy)-pyrazin-2-yl]-methyl-amino}-ethyl)-N-methyl-acetamide] | 6.00 to 6.70
CCN(CCN(C)c1cncc(Oc2ccc(F)cc2)n1)C(C)=O [Compound 90, N-Ethyl-N-(2-{[6-(4-fluoro-phenoxy)-pyrazin-2-yl]-methyl-amino}-ethyl)-acetamide] | > 6.70
CC(=O)N(C)CCN(C)c1cncc(Oc2ccc3c(c2)OCO3)n1 [Compound 91, N-(2-{[6-(Benzo[1,3]dioxol-5-yloxy)-pyrazin-2-yl]-methyl-amino}-ethyl)-N-methyl-acetamide] | 6.00 to 6.70
CC(=O)N(C)CCN(C)c1cncc(Oc2ccc3c(c2)CCC3)n1 [Compound 92, N-(2-{[6-(Indan-5-yloxy)-pyrazin-2-yl]-methyl-amino}-ethyl)-N-methyl-acetamide] | > 6.70
CC(=O)N(C)CCN(C)c1cncc(Oc2ccc(-c3ccc(C)cn3)cc2)n1 [Compound 93, N-Methyl-N-[2-(methyl-{6-[4-(5-methyl-pyridin-2-yl)-phenoxy]-pyrazin-2-yl}-amino)-ethyl]-acetamide] | > 6.70
CC(=O)Nc1ccc(Oc2cncc(N(C)CCN(C)C(C)=O)n2)cc1 [Compound 94, N-(2-{[6-(4-Acetylamino-phenoxy)-pyrazin-2-yl]-methyl-amino}-ethyl)-N-methyl-acetamide] | 6.00 to 6.70
CC(=O)N(C)CCN(C)c1cncc(Oc2ccc(C(C)C)cc2)n1 [Compound 95, N-(2-{[6-(4-Isopropyl-phenoxy)-pyrazin-2-yl]-methyl-amino}-ethyl)-N-methyl-acetamide] | > 6.70
CC(=O)N(C)CCN(C)c1cncc(Oc2ccc(Cl)cc2Cl)n1 [Compound 96, N-(2-{[6-(2,4-Dichloro-phenoxy)-pyrazin-2-yl]-methyl-amino}-ethyl)-N-methyl-acetamide] | 6.00 to 6.70
CCc1ccc(Oc2cncc(N(C)CCN(C)C(C)=O)n2)cc1 [Compound 97, N-(2-{[6-(4-Ethyl-phenoxy)-pyrazin-2-yl]-methyl-amino}-ethyl)-N-methyl-acetamide] | > 6.70
CC(=O)N(C)CCN(C)c1cncc(Oc2ccc(-c3ccccc3)cc2)n1 [Compound 98, N-(2-{[6-(Biphenyl-4-yloxy)-pyrazin-2-yl]-methyl-amino}-ethyl)-N-methyl-acetamide] | > 6.70
CC(=O)N(C)CCN(C)c1cncc(Oc2ccc(C3CCCCC3)cc2)n1 [Compound 99, N-(2-{[6-(4-Cyclohexyl-phenoxy)-pyrazin-2-yl]-methyl-amino}-ethyl)-N-methyl-acetamide] | 5.00 to 6.00
CC(=O)N(C)CCN(C)c1cncc(Oc2ccc(S(C)(=O)=O)cc2)n1 [Compound 100, N-(2-{[6-(4-Methane-sulfonyl-phenoxy)-pyrazin-2-yl]-methyl-amino}-ethyl)-N-methyl-acetamide] | 6.00 to 6.70
CC(=O)N(C)CCN(C)c1cncc(Oc2ccc(S(N)(=O)=O)cc2)n1 [Compound 101, N-Methyl-N-(2-[methyl-[6-(4-sulfamoyl-phenoxy)-pyrazin-2-yl]-amino}-ethyl)-acetamide] | 6.00 to 6.70
CCN(CCN(CC)c1cncc(Oc2ccc(F)cc2)n1)C(C)=O [Compound 102, N-Ethyl-N-(2-{ethyl-[6-(4-fluoro-phenoxy)-pyrazin-2-yl]-amino}-ethyl)-acetamide] | 6.00 to 6.70
CCN(CCN(CC)c1cncc(Oc2ccc(OC)cc2)n1)C(C)=O [Compound 103, N-Ethyl-N-(2-{ethyl-[6-(4-methoxy-phenoxy)-pyrazin-2-yl]-amino}-ethyl)-acetamide] | 6.00 to 6.70
CC(=O)N(C)CCN(C)c1cncc(OCc2ccc(F)cc2)n1 [Compound 104, N-(2-{[6-(4-Fluoro-benzyloxy)-pyrazin-2-yl]-methyl-amino}-ethyl)-N-methyl-acetamide] | 5.00 to 6.00
CC(=O)N(C)CCN(C)c1cncc(Oc2ccc(F)cc2F)n1 [Compound 105, N-(2-{[6-(2,4-Difluoro-phenoxy)-pyrazin-2-yl]-methyl-amino}-ethyl)-N-methyl-acetamide] | 6.00 to 6.70
